Experimental data as given in ChEMBL document CHEMBL5727188, “GLS1 inhibitors for treating disease” (2019).

target: T1, Glutaminase kidney isoform, mitochondrial (Homo sapiens, UniProt O94925); test: Enzymatic Activity Assay: The inhibition of purified recombinant human GAC by varying concentrations of inhibitors is assessed via a dual-coupled enzymatic assay. The glutamate produced by the glutaminase reaction is used by glutamate oxidase to produce α-ketoglutarate, ammonia, and hydrogen peroxide, with this hydrogen peroxide subsequently being used by horseradish peroxidase to produce resorufin in the presence of Amplex UltraRed. The assay buffer consisted of 50 mM Hepes (pH 7.4), 0.25 mM EDTA and 0.1 mM Triton X-100. GAC was incubated with potassium phosphate (10 minutes at room temperature) prior to incubation with inhibitor (10 minutes at room temperature). The final reaction conditions were as follows: 2 nM GAC, 50 mM potassium phosphate, 100 mU/mL glutamate oxidase (Sigma), 1 mM glutamine (Sigma), 100 mU/mL horseradish peroxidase (Sigma), 75 μM Amplex UltraRed (Life Technologies), and 1% (v/v) DMSO. The production of resorufin was monitored on a Perkin Elmer Envision plate reader (excitation 530 nm, emission 590 nm) either in a kinetics or endpoint mode (at 20 minutes). IC50 values were calculated using a four-parameter logistic curve fit.
T1 sequence (O94925 whole entry): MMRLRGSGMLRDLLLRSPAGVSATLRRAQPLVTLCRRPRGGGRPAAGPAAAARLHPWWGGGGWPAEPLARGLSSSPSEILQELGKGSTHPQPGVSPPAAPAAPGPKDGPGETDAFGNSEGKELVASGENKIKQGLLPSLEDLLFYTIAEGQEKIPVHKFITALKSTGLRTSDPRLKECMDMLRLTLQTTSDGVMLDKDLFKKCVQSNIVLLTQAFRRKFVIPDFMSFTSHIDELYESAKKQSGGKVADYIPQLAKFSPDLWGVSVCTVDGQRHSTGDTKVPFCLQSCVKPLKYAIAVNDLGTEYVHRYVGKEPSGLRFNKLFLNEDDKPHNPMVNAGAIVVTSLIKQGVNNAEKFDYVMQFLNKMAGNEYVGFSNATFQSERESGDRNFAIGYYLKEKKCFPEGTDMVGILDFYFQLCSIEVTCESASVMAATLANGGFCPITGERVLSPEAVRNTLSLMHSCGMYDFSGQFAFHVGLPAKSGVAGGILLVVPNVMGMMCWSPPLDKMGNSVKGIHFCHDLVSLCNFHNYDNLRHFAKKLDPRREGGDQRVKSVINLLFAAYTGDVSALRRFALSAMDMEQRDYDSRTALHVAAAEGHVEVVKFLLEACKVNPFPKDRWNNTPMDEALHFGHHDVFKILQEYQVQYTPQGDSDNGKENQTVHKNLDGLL

Q: How did the IC50 turn out when O=C(NCc1cccc(OC(F)(F)F)c1)c1cn(CCCCn2cc(C(=O)NCc3ccc(C(F)(F)F)cn3)nn2)nn1 was run?
A: < 100 nM

Q: For COc1cncc(CNC(=O)c2cn(CC(F)CCc3nnc(NC(=O)Cc4cccc(OC(F)(F)F)c4)s3)nn2)c1 (stereo not drawn), which IC50 is on record?
A: < 100 nM

Q: How did the IC50 turn out when O=C(NCc1cc(C2CC2)ccn1)c1cn(CCC(F)Cn2cc(C(=O)NCc3cccc(C4CC4)c3)nn2)nn1 (stereo not drawn) was run?
A: < 100 nM
